{"source": "patent US20160060260A1", "about": "“BROMODOMAIN INHIBITORS FOR TREATING DISEASE” (Board of Regents, The University of Texas System, priority 2014, published 2016)", "note": "pIC50: −log10 of the molar value."}
{"target": "T1, Recombinant human His-tagged Trim24-PHD-bromodomain (Homo sapiens, UniProt O15164)", "T1 construct": "Recombinant human His-tagged Trim24-PHD-bromodomain (produced in-house); made in house", "T1 sequence (O15164 824-1006 limits assumed)": "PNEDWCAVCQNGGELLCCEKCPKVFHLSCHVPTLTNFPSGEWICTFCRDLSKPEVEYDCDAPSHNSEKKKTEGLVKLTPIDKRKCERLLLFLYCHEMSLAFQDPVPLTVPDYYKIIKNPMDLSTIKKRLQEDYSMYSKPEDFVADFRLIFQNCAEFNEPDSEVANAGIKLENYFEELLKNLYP", "experiment": "Trim24 AlphaScreen Assay", "type": "binding", "details": "5 nM Trim24 protein, 15 nM biotinylated H3K23ac (1-33aa) peptide", "protocol": "Recombinant human His-tagged Trim24-PHD-bromodomain (produced in-house), biotinylated H3K23ac (1-33aa) peptide (AnaSpec, Inc.), and test compound were added to a 384-well OptiPlate (Perkin Elmer) and incubated at room temperature for one hour. The assay buffer consisted of 50 mM Hepes, pH 7.5, 100 mM NaCl, and 0.12 mM Triton X-100.\nStreptavidin donor beads and nickel chelate acceptor beads, both from a Perkin Elmer AlphaScreen Histidine Detection Kit, were then added to the Optiplate to a final concentration of 10 ug/mL each. Following a 2 hour incubation at room temperature, the microplate was read on an Envision Plate Reader (Perkin Elmer). Percent of control (POC) values were calculated from the following formula:\nPOC=[sample signal-average background signal]/[average maximum signal−average background signal]*100\nThe average maximum signal was obtained from wells containing all assay components except test compound. The average background signal pertained to wells with all assay components except Trim24 and test compound. IC50 values were calculated using a four-parameter logistic curve fit."}
{"smiles": "CCCOc1ccc(OC)c(Oc2cc3c(cc2NS(=O)(=O)c2cn(C)cn2)n(C)c(=O)n3C)c1", "note": "[Example 113, N-(6-(2-methoxy-5-propoxyphenoxy)-1,3-dimethyl-2-oxo-2,3-dihydro-1H-benzo[d]imidazol-5-yl)-1-methyl-1H-imidazole-4-sulfonamide]", "pIC50": "6.00 to 7.00"}
{"smiles": "CCCOc1cc(OCCCOC)cc(Oc2cc3c(cc2NS(=O)(=O)c2ccc(OC)c(OC)c2)n(C)c(=O)n3C)c1", "note": "[Example 138, 3,4-dimethoxy-N-(6-(3-(3-methoxypropoxy)-5-propoxyphenoxy)-1,3-dimethyl-2-oxo-2,3-dihydro-1H-benzo[d]imidazol-5-yl)benzenesulfonamide]", "pIC50": "7.00 to 8.00"}
{"smiles": "Cn1cnc(S(=O)(=O)Nc2cc3c(cc2Oc2cccc(OCC4(C)CO4)c2)n(C)c(=O)n3C)c1", "note": "(centres unmarked) [Example 236, N-(1,3-dimethyl-6-(3-((2-methyloxiran-2-yl)methoxy)phenoxy)-2-oxo-2,3-dihydro-1H-benzo[d]imidazol-5-yl)-1-methyl-1H-imidazole-4-sulfonamide]", "pIC50": "6.00 to 7.00"}
{"smiles": "Cn1cnc(S(=O)(=O)Nc2cc3c(cc2Oc2cccc(OCCCO)c2)n(C)c(=O)n3C)c1", "note": "[Example 240, N-(6-(3-(3-hydroxypropoxy)phenoxy)-1,3-dimethyl-2-oxo-2,3-dihydro-1H-benzo[d]imidazol-5-yl)-1-methyl-1H-imidazole-4-sulfonamide]", "pIC50": "6.00 to 7.00"}
{"smiles": "Cc1ncc(S(=O)(=O)Nc2cc3c(cc2Oc2cccc(OCc4ccccc4)c2)n(C)c(=O)n3C)s1", "note": "[Example 47, N-(6-(3-(benzyloxy)phenoxy)-1,3-dimethyl-2-oxo-2,3-dihydro-1H-benzo[d]imidazol-5-yl)-2-methylthiazole-5-sulfonamide]", "pIC50": "6.00 to 7.00"}
{"smiles": "CCCOc1cc(OCCCCN2CC(O)C2)cc(Oc2cc3c(cc2NS(=O)(=O)c2ccc(OC)c(OC)c2)n(C)c(=O)n3C)c1", "note": "[Example 248, N-(6-{3-[4-(3-hydroxyazetidin-1-yl)butoxy]-5-propoxyphenoxy}-1,3-dimethyl-2-oxo-2,3-dihydro-1H-1,3-benzodiazol-5-yl)-3,4-dimethoxybenzene-1-sulfonamide]", "pIC50": "7.00 to 8.00"}
{"smiles": "C=C(C)COc1cccc(Oc2cc3c(cc2NS(=O)(=O)c2cn(C)cn2)n(C)c(=O)n3C)c1", "note": "[Example 70, N-(1,3-dimethyl-6-(3-((2-methylallyl)oxy)phenoxy)-2-oxo-2,3-dihydro-H-benzo[d]imidazol-5-yl)-1-methyl-1H-imidazole-4-sulfonamide]", "pIC50": "7.00 to 8.00"}
{"smiles": "CCCOc1cc(OCCCOC)cc(Oc2cc3c(cc2NS(=O)(=O)C2CC2)n(C)c(=O)n3C)c1", "note": "[Example 150, N-(6-(3-(3-methoxypropoxy)-5-propoxyphenoxy)-1,3-dimethyl-2-oxo-2,3-dihydro-1H-benzo[d]imidazol-5-yl)cyclopropanesulfonamide]", "pIC50": "6.00 to 7.00"}
{"smiles": "Cn1c(=O)n(C)c2cc(Oc3cccc(OCc4ccccc4)c3)c(NS(=O)(=O)CCO)cc21", "note": "[Example 81, N-(6-(3-(benzyloxy)phenoxy)-1,3-dimethyl-2-oxo-2,3-dihydro-1H-benzo[d]imidazol-5-yl)-2-hydroxyethane-1-sulfonamide]", "pIC50": "< 6.00"}
{"smiles": "Cn1c(=O)n(C)c2cc(Oc3cccc(OCC4CC4)c3)c(NS(=O)(=O)c3cn[nH]c3)cc21", "note": "[Example 132, N-(6-(3-(cyclopropylmethoxy)phenoxy)-1,3-dimethyl-2-oxo-2,3-dihydro-1H-benzo[d]imidazol-5-yl)-1H-pyrazole-4-sulfonamide]", "pIC50": "6.00 to 7.00"}
{"smiles": "CCCOc1cccc(Oc2cc3c(cc2NS(=O)(=O)c2nnc[nH]2)n(C)c(=O)n3C)c1", "note": "[Example 87, N-(1,3-diemthyl-2-oxo-6-(3-propoxyphenoxy)-2,3-dihydro-1H-benzo[d]imidazol-5-yl)-4H-1,2,4-triazole-3-sulfonamide]", "pIC50": "6.00 to 7.00"}
{"smiles": "CCCOc1cc(OCCCOC)cc(Oc2cc3c(cc2NS(=O)(=O)c2cn(C(C)C)c(C)n2)n(C)c(=O)n3C)c1", "note": "[Example 139, 1-isopropyl-N-(6-(3-(3-methoxypropoxy)-5-propoxyphenoxy)-1,3-dimethyl-2-oxo-2,3-dihydro-1H-benzo[d]imidazol-5-yl)-2-methyl-1H-imidazole-4-sulfonamide]", "pIC50": "7.00 to 8.00"}
{"smiles": "CCCOc1cc(C#N)cc(Oc2cc3c(cc2NS(=O)(=O)c2ccc(OC)c(OC)c2)n(C)c(=O)n3C)c1", "note": "[Example 109, N-(6-(3-cyano-5-propoxyphenoxy)-1,3-dimethyl-2-oxo-2,3-dihydro-1H-benzo[d]imidazol-5-yl)-3,4-dimethoxybenzenesulfonamide]", "pIC50": "7.00 to 8.00"}
{"smiles": "Cn1cnc(S(=O)(=O)Nc2cc3c(cc2Oc2cccc(OCc4ccc(Cl)nc4)c2)n(C)c(=O)n3C)c1", "note": "[Example 3, N-(6-(3-((6-chloropyridin-3-yl)methoxy)phenoxy)-1,3-dimethyl-2-oxo-2,3-dihydro-1H-benzo[d]imidazol-5-yl)-1-methyl-1H-imidazole-4-sulfonamide]", "pIC50": "< 6.00"}
{"smiles": "CCCOc1cc(OCCCCCCN)cc(Oc2cc3c(cc2NS(=O)(=O)c2cccnc2)n(C)c(=O)n3C)c1", "note": "[Example 183, N-(6-(3-((6-aminohexyl)oxy)-5-propoxyphenoxy)-1,3-dimethyl-2-oxo-2,3-dihydro-1H-benzo[d]imidazol-5-yl)pyridine-3-sulfonamide]", "pIC50": "8.00 to 9.00"}
{"smiles": "COCC(C)(O)COc1cccc(Oc2cc3c(cc2NS(=O)(=O)c2cn(C)cn2)n(C)c(=O)n3C)c1", "note": "(centres unmarked) [Example 233, N-{6-[3-(2-hydroxy-3-methoxy-2-methylpropoxy)phenoxy]-1,3-dimethyl-2-oxo-2,3-dihydro-1H-1,3-benzodiazol-5-yl}-1-methyl-1H-imidazole-4-sulfonamide]", "pIC50": "6.00 to 7.00"}
{"smiles": "Cc1nc(S(=O)(=O)Nc2cc3c(cc2Oc2cccc(OCC(=O)N(C)C)c2)n(C)c(=O)n3C)cn1C", "note": "[Example 56, 2-(3-((6-((1,2-dimethyl-1H-imidazole)-4-sulfonamido)-1,3-dimethyl-2-oxo-2,3-dihydro-1H-benzo[d]imidazol-5-yl)oxy)phenoxy)-N,N-dimethylacetamide]", "pIC50": "< 6.00"}
{"smiles": "CCCOc1cc(OCC2CC2)cc(Oc2cc3c(cc2NS(=O)(=O)c2cn(C)cn2)n(C)c(=O)n3C)c1", "note": "[Example 126, N-(6-(3-(cyclopropylmethoxy)-5-propoxyphenoxy)-1,3-dimethyl-2-oxo-2,3-dihydro-1H-benzo[d]imidazol-5-yl)-1-methyl-1H-imidazole-4-sulfonamide]", "pIC50": "7.00 to 8.00"}
{"smiles": "Cn1cnc(S(=O)(=O)Nc2cc3c(cc2Oc2cccc(OCc4cccnc4)c2)n(C)c(=O)n3C)c1", "note": "[Example 39, N-(1,3-dimethyl-2-oxo-6-(3-(pyridin-3-ylmethoxy)phenoxy)-2,3-dihydro-1H-benzo[d]imidazol-5-yl)-1-methyl-1H-imidazole-4-sulfonamide]", "pIC50": "6.00 to 7.00"}
{"smiles": "CCCOc1cc(Oc2cc3c(cc2NS(=O)(=O)c2cn(C)cn2)n(C)c(=O)n3C)ccc1F", "note": "[Example 105, N-(6-(4-fluoro-3-propoxyphenoxy)-1,3-dimethyl-2-oxo-2,3-dihydro-1H-benzo[d]imidazol-5-yl)-1-methyl-1H-imidazole-4-sulfonamide]", "pIC50": "7.00 to 8.00"}
{"smiles": "Cn1c(=O)n(C)c2cc(Oc3cccc(OCc4ccccc4)c3)c(NS(=O)(=O)c3c[nH]cn3)cc21", "note": "[Example 78, N-(6-(3-(benzyloxy)phenoxy)-1,3-dimethyl-2-oxo-2,3-dihydro-1H-benzo[d]imidazol-5-yl)-1H-imidazole-4-sulfonamide]", "pIC50": "6.00 to 7.00"}
{"smiles": "CCCOc1cc(OCCCOC)cc(Oc2cc3c(cc2NS(=O)(=O)c2cn(C(C)CC)cn2)n(C)c(=O)n3C)c1", "note": "(centres unmarked) [Example 148, 1-(sec-butyl)-N-(6-(3-(3-methoxypropoxy)-5-propoxyphenoxy)-1,3-dimethyl-2-oxo-2,3-dihydro-1H-benzo[d]imidazol-5-yl)-1H-imidazole-4-sulfonamide]", "pIC50": "7.00 to 8.00"}
{"smiles": "CCCOc1cccc(Oc2cc3c(cc2NS(=O)(=O)c2c[nH]cn2)n(C)c(=O)n3C)c1", "note": "[Example 86, N-(1,3-dimethyl-2-oxo-6-(3-propoxyphenoxy)-2,3-dihydro-1H-benzo[d]imidazol-5-yl)-1H-imidazole-4-sulfonamide]", "pIC50": "7.00 to 8.00"}
{"smiles": "CCCOc1cc(OCCCOC)cc(Oc2cc3c(cc2NS(=O)(=O)c2ccc(N(C)C)cc2)n(C)c(=O)n3C)c1", "note": "[Example 177, 4-(dimethylamino)-N-(6-(3-(3-methoxypropoxy)-5-propoxyphenoxy)-1,3-dimethyl-2-oxo-2,3-dihydro-benzo[d]imidazol-5-yl)benzenesulfonamide]", "pIC50": "6.00 to 7.00"}
{"smiles": "CCn1cnc(S(=O)(=O)Nc2cc3c(cc2Oc2cccc(OCc4ccccc4)c2)n(C)c(=O)n3C)c1", "note": "[Example 50, N-(6-(3-(benzyloxy)phenoxy)-1,3-dimethyl-2-oxo-2,3-dihydro-1H-benzo[d]imidazol-5-yl)-1-ethyl-1H-imidazole-4-sulfonamide]", "pIC50": "6.00 to 7.00"}
{"smiles": "CC(COC(=O)CNC(=O)OC(C)(C)C)COc1cccc(Oc2cc3c(cc2NS(=O)(=O)c2cn(C)cn2)n(C)c(=O)n3C)c1", "note": "(centres unmarked) [Example 239, 3-(3-{[1,3-dimethyl-6-(1-methyl-1H-imidazole-4-sulfonamido)-2-oxo-2,3-dihydro-1H-1,3-benzodiazol-5-yl]oxy}phenoxy)-2-methylpropyl 2-{[(tert-butoxy)carbonyl]amino}acetate]", "pIC50": "6.00 to 7.00"}
